Results from patent publication US20250241895A1 (GH RESEARCH IRELAND LIMITED, priority 2022, published 2025).

Experiment: Pharmacokinetics of 5-MeO-DMT and bufotenine after inhalation
Assay type: in vivo, human
Method: Blood samples were obtained at 1; 2; 4; 7; 10; 15; 20; 30; 45 min and 1; 1.5; 2; 3; 4 hours after administration.
PK parameters were generated by algebraic analysis of the concentration versus time plots for each individual. The analysis was carried out using the software Phoenix WinNonlin 6.3.

In the case of `COc1ccc2[nH]cc(CCN(C)C)c2c1` [5-MeO-DMT], the “detectability in the plasma” value (3 hours after inhalation, 6 mg, 12 mg, 18 mg) is reported as “no longer detectable” and the absorption and distribution (inhaled) is reported as “rapid absorption and distribution”.
